The source of these data is US11466013B2 (Betta Pharmaceuticals Co., LTD, priority 2018, dated 2022).

The target of one test is ERK2 (Homo sapiens, UniProt P28482). The test is described as follows: Kinase assay (Caliper, FAM-labeled peptide), ERK2. The test is classed as biochemical. The procedure:
(§1) The compound was diluted to the desired concentration with DMSO, transferred 100 μL to a 96-well plate, and performed a gradient dilution 10 μL of compound from each well was taken and mixed with 90 μL of kinase buffer, and then transferred 5 μL from each well to a 384-well plate. Kinase and FAM-labeled peptide and ATP were added to 1× kinase alkaline buffer to obtain 2.5× enzyme solution and 2.5× peptide solution, 10 μL of 2.5× enzyme solution was added to the 384-well assay plate. After incubating for 10 minutes at room temperature, 10 μL of 2.5× peptide solution was added to the 384-well plate. After reacting for a specific time at […], 25 μL of termination buffer was added to stop reaction. After reading the collected data on Caliper, the data was converted to inhibition percentage. Inhibition percentage=(maximum value−conversion value)/(maximum value−minimum value)*100.
(§2) The “maximum” is the DMSO control, the “minimum” indicates the low control.
(§3) Graphpad Prism software was used to perform curve fitting and obtain IC50 value.

The subject of a further test is COLO205 cells. Nature of the test: Cell proliferation assay (COLO205), Cell-titer Glo. Type of test: cell-based. The protocol: COLO205 cells were spread into a 96-well plate at 135 μL/well at 2000 cells. After incubating overnight, compound solutions of gradient concentration was prepared, and added 15 μL of DMSO solution of the test compound of each concentration to the cells of each well. The final concentration of the compound was 30000, 10000, 3333.3, 1111.1, 370.4, 123.5, 41.2, 13.7, 4.6, 0 nM (the final concentration of DMSO was 0.5%). 5% CO2 was incubated for 120 h at 37° C. 50 μL of Cell-titer Glo working solution was added to each well, shaked and mixed, and incubated at room temperature for 10 minutes. The multi-functional microplate reader read the luminescence value, and converted the luminescence value reading into inhibition percentage. Inhibition percentage=(maximum value−reading)/(maximum value−minimum value)*100.
The “maximum value” was the DMSO control, the “minimum value” indicates the cell-free control group.
as §3

A further test addresses ERK1 (Homo sapiens, UniProt P27361). Nature of the test: Kinase assay (Caliper, FAM-labeled peptide), ERK1. Type of test: biochemical. The protocol: as §1, §2, §3
Setting [1] is: Homo sapiens, COLO 205, 120 h incubation.

Chain of ERK2 (P28482 whole entry): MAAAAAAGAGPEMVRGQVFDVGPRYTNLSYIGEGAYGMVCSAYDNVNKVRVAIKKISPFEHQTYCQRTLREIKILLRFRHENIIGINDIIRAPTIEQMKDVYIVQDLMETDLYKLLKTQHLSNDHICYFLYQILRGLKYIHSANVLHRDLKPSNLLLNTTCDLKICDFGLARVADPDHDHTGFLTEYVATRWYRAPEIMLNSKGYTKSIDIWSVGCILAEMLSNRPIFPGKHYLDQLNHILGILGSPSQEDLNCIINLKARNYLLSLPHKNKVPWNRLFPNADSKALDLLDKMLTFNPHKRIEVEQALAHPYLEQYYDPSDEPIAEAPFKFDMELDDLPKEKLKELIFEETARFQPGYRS
Chain of ERK1 (P27361 whole entry): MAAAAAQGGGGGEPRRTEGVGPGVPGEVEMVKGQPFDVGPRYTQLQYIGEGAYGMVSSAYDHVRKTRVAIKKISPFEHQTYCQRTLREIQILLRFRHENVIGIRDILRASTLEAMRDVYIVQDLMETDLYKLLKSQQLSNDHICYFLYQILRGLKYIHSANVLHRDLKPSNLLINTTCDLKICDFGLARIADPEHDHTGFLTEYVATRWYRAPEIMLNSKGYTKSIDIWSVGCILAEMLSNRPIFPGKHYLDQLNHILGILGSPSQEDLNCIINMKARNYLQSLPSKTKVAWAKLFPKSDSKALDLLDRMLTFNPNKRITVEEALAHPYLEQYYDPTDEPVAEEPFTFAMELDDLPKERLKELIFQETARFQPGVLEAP

In general, IC50 refers to the concentration needed to halve the response being measured. A high value points to lower potency. As for `CC(C)Nc1cc(-c2cc3n(c2)CC2(COC2)CN(Cc2cc(F)c(F)cc2CO)C3=O)c(Cl)cn1` [Example 17], the IC50 came out at 0.4 nM against ERK2, 25 nM in the test with COLO205 cells (setting [1]) and 0.47 nM against ERK1. The corresponding values for `CC(C)Nc1cc(-c2cc3n(c2)CC2(COC2)CN(Cc2ccc(F)cc2CO)C3=O)c(Cl)cn1` [Example 13] are 0.89 nM, 50.8 nM and 0.74 nM.

For `CC(C)Nc1cc(-c2cc3n(c2)CC2(COC2)CN(Cc2ccccc2CO)C3=O)c(Cl)cn1` [Example 6, 8′-(5-Chloro-2-(isopropylamino)pyridin-4-yl)-2′-(2-(hydroxymethyl)benzyl)-2′,3-dihydro-1′H,5′H-spiro[oxetane-3,4′-pyrrolo[1,2-a][1,4]diazepine]-1′-one], the IC50 worked out at 0.5 nM against ERK2, 9 nM with COLO205 cells (setting [1]) and 0.8 nM against ERK1. Regarding `CC(C)Nc1cc(-c2cnn(C(=O)N[C@H](CO)c3cccc(Cl)c3)c2)c(Cl)cn1` [Example D2, (S)-4-(5-chloro-2-(isopropylamino)pyridin-4-yl)-N′-(1-(3-chlorophenyl)-2-hydroxyethyl)-1H-pyrazole-1-carboxamide, reference compound], the IC50 in the test with COLO205 cells (120 h incubation) was 12200 nM.

For the compound `COC[C@H]1Cn2cc(-c3cc(Nc4cn(C)nc4C)ncc3Cl)cc2C(=O)N1Cc1cc(F)ccc1CO` [Example 89, (R)-7-(5-chloro-2-((1,3-dimethyl-1h-pyrazole-4-yl)amino)pyridine-4-yl)-2-(5-fluoro-2-(hydroxymethyl)benzyl)-3-(methoxymethyl)-3,4-dihydropyrrolo[1,2-a] pyrazin-1(2H)-one], the IC50 was 1.1 nM at ERK2 and 12 nM in the test with COLO205 cells (setting [1]).

Regarding `Cc1cnc(Nc2ccnn2C)nc1-c1cc2n(c1)CCN(Cc1cccc(F)c1)C2=O` [Example D5, 2-(3-fluorobenzyl)-7-(5-methyl-2-((1-methyl-1h-pyrazole-5-yl)amino)pyrimidin-4-yl)-3,4-dihydropyrrolo[1,2-a] pyrazine-1(2H)-one, reference compound], the 50% inhibitory concentration (IC50) in the test with COLO205 cells (setting [1]) is 93.7 nM.

As to `COC[C@H]1Cn2cc(-c3cc(Nc4c(F)cnn4C)ncc3Cl)cc2C(=O)N1Cc1cc(F)ccc1CO` [Example 51, (R)-7-(5-chloro-2-((4-fluoro-1-methyl-1H-pyrazol-5-yl)amino)pyridin-4-yl)-2-(5-fluoro-2-(hydroxymethyl)benzyl)-3-(methoxymethyl)-3,4-dihydropyrrolo[1,2-a]pyrazine-1(2H)-ketone], the IC50 in the test on COLO205 cells (setting [1]) stood at 24.4 nM. As to `Cn1nccc1Nc1ncc(C(F)(F)F)c(-c2cc3n(c2)CCN(Cc2cc(F)ccc2CO)C3=O)n1` [Example 164, 2-(5-fluoro-2-(hydroxymethyl)benzyl)-7-(2-((1-methyl-1h-pyrazole-5-yl)amino)-5-(trifluoromethyl)pyrimidin-4-yl)-3,4-dihydropyrrolo[1,2-a] pyrazine-1(2H)-one], the results for the IC50 against ERK2 and in the test with COLO205 cells (setting [1]) were 0.66 nM and 28.9 nM, respectively.

Consider `COC[C@H]1Cn2cc(-c3cc(Nc4cnn(C)c4)ncc3Cl)cc2C(=O)N1Cc1cc(F)ccc1CO` [Example 88, (R)-7-(5-chloro-2-((1-methyl-1h-pyrazole-4-yl)amino)pyridine-4-yl)-2-(5-fluoro-2-(hydroxymethyl)benzyl)-3-(methoxymethyl)-3,4-dihydropyrrolo[1,2-a] pyrazine-1(2H)-one], for which the IC50 on ERK2 amounted to 1 nM; in the test with COLO205 cells (setting [1]), 28.8 nM. For `COC[C@H]1Cn2cc(-c3cc(Nc4cc(C)nn4C)ncc3Cl)cc2C(=O)N1Cc1cc(F)ccc1CO` [Example 96, (R)-7-(5-chloro-2-((1,3-dimethyl-1h-pyrazole-5-yl)amino)pyridine-4-yl)-2-(5-fluoro-2-(hydroxymethyl)benzyl)-3-(methoxymethyl)-3,4-dihydropyrrolo[1,2-a] pyrazine-1(2H)-one] the same measures were 1.8 nM and 11 nM. As for `COCOC[C@H]1Cn2cc(-c3cc(Nc4ccnn4C)ncc3Cl)cc2C(=O)N1Cc1cc(F)ccc1CO` [Example 53, (R)-7-(5-chloro-2-((1-methyl-1H-pyrazol-5-yl)amino)pyridin-4-yl)-2-(5-fluoro-2-(hydroxymethyl)benzyl)-3-((methoxymethoxy)methyl)-3,4-dihydropyrrolo[1,2-a]pyrazine-1(2H)-ketone], half-maximal inhibition in the test with COLO205 cells (setting [1]) (IC50) required 3.9 nM.

In the test on COLO205 cells (setting [1]), `Cc1cnc(Nc2ccnn2C)nc1-c1c[nH]c(C(=O)NCc2cccc(F)c2)c1` [Example D4, N-(3-fluorobenzyl)-4-(5-methyl-2-((1-methyl-1h-pyrazole-5-yl)amino)pyrimidin-4-yl)-1h-pyrrole-2-formamide, reference compound] came in with a concentration for half-maximal inhibition (IC50) of 252 nM. In turn, `CC(C)Nc1cc(-c2cc3n(c2)CCN(C(CO)c2cccc(C(F)(F)F)c2)C3=O)c(Cl)cn1` (stereo not drawn) [Example D1, reference compound] registered an IC50 in the test on COLO205 cells (120 h incubation) of 7330 nM. With `CC(C)Nc1cc(-c2cc3n(c2)CC2(COC(C)(C)OC2)CN(Cc2ccccc2CO)C3=O)c(Cl)cn1` [Example 26, 8-(5-Chloro-2-(isopropylamino)pyridin-4-yl)-2-(2-(hydroxymethyl)benzyl)-2′,2′-dimethyl-2,3-dihydro-1H,5H-spiro[pyrrolo[1,2-a][1,4]diazepine-4,5′-[1,3]dioxane]-1-one], the values for the IC50 at ERK2 and at ERK1 were 1.4 nM and 1.3 nM, respectively. `COC[C@H]1Cn2cc(-c3cc(Nc4cc(C)on4)ncc3Cl)cc2C(=O)N1Cc1cc(F)ccc1CO` [Example 80, (R)-7-(5-chloro-2-((5-Methylisoxazole-3-yl)amino)pyridine-4-yl)-2-(5-fluoro-2-(hydroxymethyl)benzyl)-3-(methoxymethyl)-3,4-dihydropyrrolo[1,2-a] pyrazine-1(2H)-one]: the values for the IC50 against ERK2 and on ERK1 were 0.68 nM and 0.73 nM, respectively. As for `COCC1(CO)CN(Cc2cc(F)ccc2CO)C(=O)c2cc(-c3cc(NC(C)C)ncc3Cl)cn2C1` (stereo not drawn) [Example 56, 8-(5-chloro-2-(isopropylamino)pyridin-4-yl)-2-(5-fluoro-2-(hydroxymethyl)benzyl)-4-(hydroxymethyl)-4-(methoxymethyl)-2,3,4,5-4,5-tetrahydro-1h-pyrrolo [1,2-a][1,4]diazepine-1-one], the results for the half-inhibitory concentration (IC50) against ERK2 and against ERK1 were 0.64 nM and 0.95 nM, respectively. For `CC(C)Nc1cc(-c2c[nH]c(C(=O)NCc3ccccc3CO)c2)c(Cl)cn1` [Example 1, 4-(5-chloro-2-(isopropylamino)pyridin-4-yl)-N-(2-(hydroxymethyl)benzyl)-1H-pyrrole-2-methyl amide] the same measures were 3.4 nM and 3 nM. In the case of `COC(=O)C1Cn2cc(-c3cc(NC(C)C)ncc3Cl)cc2C(=O)N1Cc1cc(F)ccc1CO` (stereo not drawn) [Example 57, Methyl 7-(5-chloro-2-(isopropylamino)pyridin-4-yl)-2-(5-fluoro-2-(hydroxymethyl)benzyl)-1-oxo-1,2,3,4-tetrahydropyrrolo [1,2-a]pyrazine-3-carboxylic acid ethyl ester], the IC50 stood at 0.5 nM at ERK2 and 0.9 nM against ERK1. For `CC(C)Nc1cc(-c2cc3n(c2)CCN(Cc2cccc(F)c2)C3=O)c(Cl)cn1` [Example D8, 7-(5-chloro-2-(isopropylamino)pyridin-4-yl)-2-(3-fluorobenzyl)-3,4-dihydropyrrolo[1,2-a] pyrazine-1(2H)-one, reference compound], the IC50 in the test on COLO205 cells (setting [1]) came to 1630 nM. `COC[C@H]1Cn2cc(-c3ccnc(NC4CCOCC4)c3)cc2C(=O)N1Cc1cc(F)ccc1CO` [Example 67, (R)-2-(5-fluoro-2-(hydroxymethyl)benzyl)-3-(methoxymethyl)-7-(2-((tetrahydro-2h-pyran-4-yl)amino)pyridine-4-yl)-3,4-dihydropyrrolo [1,2-a]pyrazine-1(2H)-one]: the IC50 at ERK2 was 1.2 nM; on ERK1, 1.6 nM. For `COCC1Cn2cc(-c3cc(NC4CCN(C(C)C)CC4)ncc3Cl)cc2C(=O)N1Cc1cc(F)ccc1CO` (stereo not drawn) [Example 73, 7-(5-chloro-2-((1-isopropylpiperidin-4-yl)amino)pyridine-4-yl)-2-(5-fluoro-2-(hydroxymethyl)benzyl)-3-(methoxymethyl)-3,4-dihydropyrrolo[1,2-a] pyrazine-1(2H)-one] the same measures were 0.9 nM and 3.1 nM. On to `O=C1c2cc(-c3cc(NC4COC4)ncc3Cl)cn2CCN1Cc1cc(F)ccc1CO` [Example 30, 7-(5-Chloro-2-(oxetan-3-ylamino)pyridin-4-yl)-2-(5-fluoro-2-(hydroxymethyl)benzyl)-3,4-dihydropyrrolo[1,2-a]pyrazine-1(2H)-one], for which the 50% inhibitory concentration (IC50) was determined as 0.2 nM against ERK2 and 0.31 nM on ERK1. The corresponding values for `COC[C@H]1Cn2cc(-c3cc(NC(C)C)ncc3Cl)nc2C(=O)N1Cc1cc(F)ccc1CO` [Example 46, (R)-2-(5-chloro-2-(isopropylamino)pyridin-4-yl)-7-(5-fluoro-2-(hydroxymethyl)benzyl)-6-(methoxymethyl)-6,7-dihydroimidazo[1,2-a]pyrazine-8-(5H)-one] are 1.4 nM and 2.8 nM.
